In PMC7180984, “A Hydrophilic Interaction Liquid Chromatography–Tandem Mass Spectrometry Quantitative Method for Determination of Baricitinib in Plasma, and Its Application in a Pharmacokinetic Study in Rats” (Molecules, 2020):
Where two headings read alike, the source gives them in different places.

How the values were obtained:
[1] = system: CYP3A4 enzyme; set-up: method as in PMID 30907116; details: cited from earlier work
[2] = system: breast cancer resistance protein (BCRP); set-up: method as in PMID 30907116; details: cited from earlier work
[3] = system: multidrug and toxic extrusion protein (MATE) 2-K; set-up: method as in PMID 30907116; details: cited from earlier work
[4] = Stability of quality control samples in rat plasma; format: in vitro ADME; details: n = 6
Description: […] Baracitinib stability was evaluated after three freeze-thaw cycles, storage at room temperature (23–25 °C) for 6 h (short term stability), and subsequent storage for eight weeks at −80 °C (long term stability). Moreover, the stability of stock and working solutions of baricitinib and the IS at room temperature for 6 h (23–25 °C) and at refrigerator (2–8 °C) for 12 days was tested.

[5] = system: organic anionic transporter (OAT) 3; set-up: method as in PMID 30907116; details: cited from earlier work
[6] = set-up: method as in earlier work; details: pre-clinical animal studies, at higher dosages; cited from earlier work
[7] = Stability of working solutions; format: physicochemical
Description: Stability of the analyte was assessed using five measurements of QC samples at low and high concentrations after exposure to different conditions of storage and processing temperature. Baracitinib stability was evaluated after three freeze-thaw cycles, storage at room temperature (23–25 °C) for 6 h (short term stability), and subsequent storage for eight weeks at −80 °C (long term stability). […]

[8] = Pharmacokinetic study in rats after oral administration of baricitinib suspension; format: in vivo, Sprague Dawely rats
Description: Sample analysis was performed on an Acquity TQD UPLC-MS/MS system (Waters Co., Milford, MA, USA). The triple quadrupole mass spectrometer was operated in the MRM mode, and detection was carried out using electrospray ionization (ESI) in the positive ion mode. In addition, the mass spectrometry parameters including parent to daughter ion transition, collision energy, cone voltage, and dwell time were optimized to determine the analyte and IS (Table 5). The collision gas (argon) flow rate was kept at 0.1 mL/min and the desolvation gas (nitrogen) flow rate was optimized to 600 L/h. […] The flow rate was 0.2 mL/min.
Baricitinib and IS were extracted from rat plasma using liquid–liquid extraction. 20 µL of irbesartan working solution (20 µg/mL) was added to 100 µL plasma samples. After vortex-mixing for 20 s, 1 mL of n-hexane:dichlromethane mixture (1:1) was added. Samples were then mixed for 1 min and centrifuged for 5 min at 5600× g. The supernatant (0.8 mL) was transferred to a 5-mL tube and evaporated to dryness at 40 °C. Residues were reconstituted in 100 µL of the mobile phase and 5 µL was injected into the LC-MS/MS system.
Sprague Dawely rats weighing 200–230 g were obtained from the animal house at the National Organization for Drug Control and Research, Giza, Egypt. Rats were fed standard sufficient food and water and experiments were performed under the Guide for Care and Use of laboratory animals. experimental protocols were approved by the ethics committee of the Faculty of Pharmacy at Al-Azhar University, Cairo, Egypt (no. 206).
Baricitinib was used to create a suspension using 1% carboxymethyl cellulose. Following overnight fasting, the drug was administered in a dose of 2 mg/10 mL/kg. Blood samples (approximately 0.25 mL) were then collected from the retro-orbital plexus into heparinized tubes at 0.0, 0.25, 0.5, 0.75, 1.0, 1.25, 2.0, 3.0, 5.0, 7.0, 9.0, and 11.0 h post-dosing. Plasma samples were obtained by centrifuging the blood at 4250× g for 5 min and stored frozen at −80 °C until analysis. The pharmacokinetic parameters Cmax, tmax, AUC, t½, and Kel were calculated using WinNonlin software.

[9] = system: P-glycoprotein (Pgp); set-up: method as in PMID 30907116; details: cited from earlier work
[10] = cited from earlier work
[11] = set-up: method as in PMID 24965573; details: cited from earlier work
[12] = cited from earlier work; remark: listed apart in the source
[13] = Auto-sampler, nominal 40.0 ng/mL
[14] = Auto-sampler, nominal 400.0 ng/mL
[15] = Bench top (6 h), nominal 400.0 ng/mL
[16] = Long term (at −80 °C for 8 weeks), nominal 40.0 ng/mL
[17] = Long term (at −80 °C for 8 weeks), nominal 400.0 ng/mL
[18] = Thaw/freeze (3 cycles), nominal 40.0 ng/mL
[19] = Thaw/freeze (3 cycles), nominal 400.0 ng/mL
[20] = refrigerated temperature (2–8 °C) for 10 days
[21] = room temperature (23–25 °C) for 6 h
[22] = Sprague-Dawley, rat, plasma, male rats, oral 2 mg/kg suspension, fasted, mean ± SD
[23] = rats, literature value higher than present work
[24] = co-administration of high-fat meal
[25] = with rifampicin (potent CYP3A inducer)

CCS(=O)(=O)N1CC(CC#N)(n2cc(-c3ncnc4[nH]ccc34)cn2)C1 [baricitinib, Baricitinib]
Metabolism by CYP3A4 [1]: primarily metabolized | Substrate of BCRP [2]: substrate | Substrate of MATE2-K [3]: substrate | Stability, Accuracy (%) [4, 13]: 89.0% | Stability, measured conc. Mean ± SD [4, 13]: 35.6 ± 2.69 ng/mL | Stability, Accuracy (%) [4, 14]: 90.1% | Stability, measured conc. Mean ± SD [4, 14]: 360.36 ± 11.52 ng/mL | Stability, measured conc. Mean ± SD ([4]; Bench top (6 h), nominal 40.0 ng/mL): 34.61 ± 3.03 ng/mL | Stability, Accuracy (%) [4, 15]: 85.8% | Stability, measured conc. Mean ± SD [4, 15]: 343.27 ± 44.76 ng/mL | Stability, Accuracy (%) [4, 16]: 86.6% | Stability, measured conc. Mean ± SD [4, 16]: 34.63 ± 4.63 ng/mL | Stability, Accuracy (%) [4, 17]: 87.64% | Stability, measured conc. Mean ± SD [4, 17]: 350.56 ± 28.53 ng/mL | Stability, Accuracy (%) [4, 18]: 85.1% | Stability, measured conc. Mean ± SD [4, 18]: 34.09 ± 3.99 ng/mL | Stability, Accuracy (%) [4, 19]: 86.4% | Stability, measured conc. Mean ± SD [4, 19]: 345.73 ± 39.84 ng/mL | Substrate of OAT3 [5]: substrate | Embryotoxicity and teratogenicity [6]: embryotoxicity, teratogenicity, and adverse effect on bone development in utero | Stability of working solution [7, 20]: stable | Stability of working solution [7, 21]: stable | AUC(0-inf) [8, 22]: 223 ± 107 ng·h/mL | Cmax [8, 22]: 129 ± 91.4 ng/mL | MRT [8, 22]: 3.3 ± 0.78 h | half-life [8, 22]: 134 ± 25.8 min | AUC(0-t) ([8]; Sprague-Dawley, rat, plasma, male rats, oral 2 mg/kg suspension, fasted, mean ± SD, read-out: AUC0-11): 205 ± 101 ng·h/mL | Tmax ([8]; Sprague-Dawley, rat, plasma, male rats, oral 2 mg/kg suspension, fasted, median): 30 min | Difference in AUC, value reported by Veeraraghavan et al. versus present work [8, 23]: 4.3 fold | Difference in Cmax, value reported by Veeraraghavan et al. versus present work [8, 23]: 5 fold | Substrate of P-glycoprotein (Pgp) [9]: substrate | Delay in tmax [10, 24]: 3 h | Effect on AUC [10, 24]: no effect | Reduction of Cmax [10, 24]: about 29% | Change of clearance ([10]; with an inhibitor of the transporter OAT3): reduced | Effect on baricitinib pharmacokinetics ([10]; with fluconazole (CYP2C19/CYP2C9/CYP3A inhibitor)): did not significantly affect | Effect on baricitinib pharmacokinetics ([10]; with ketoconazole (CYP3A inhibitor)): did not significantly affect | Change of Cmax (rate of absorption) ([10]; with probenecid): not significantly increased | Potentiation of AUC0-inf ([10]; with probenecid): twofold | Renal clearance decreased to ([10]; with probenecid): 69% | Change of AUC [10, 25]: decreased | Change of Cmax [10, 25]: without affecting | Time to peak plasma concentrations ([11]; after oral administration): approximately 1 h | Oral bioavailability [11]: 79% | Bound to plasma proteins ([11]; mainly albumin): about 50% | LDL-C and HDL-C levels [12]: stable dose-response increase | Infection risk ([12]; particularly for herpes zoster): elevates infection risk | Safety and tolerability ([12]; patients with moderate to severe RA treated for 24 weeks): safe and well tolerated

CCCCC1=NC2(CCCC2)C(=O)N1Cc1ccc(-c2ccccc2-c2nnn[nH]2)cc1 [IS, irbesartan]
Stability of working solution [7, 20]: stable | Stability of working solution [7, 21]: stable
